Data published in paper PMC6332320, “Factors Influencing Oral Bioavailability of Thai Mango Seed Kernel Extract and Its Key Phenolic Principles” (Molecules, 2015).
Like-named read-outs stand apart in the source and are kept apart here.

Test: In vivo oral pharmacokinetic study in SD rats
Set-up: species or system Sprague-Dawley rats
Settings: for MRT last / half-life / k el / Cmax / Tmax / AUC(0-t): Sprague-Dawley, rat, blood, po; for k el: read-out: Ke (converted); for AUC(0-t): read-out: AUC0–24h
Experimental: SD rats (five rats/group) were individually housed in stainless-steel metabolic cages, which allowed for the separation and collection of urine and feces. The rats were fasted overnight with ad libitum access to water prior to the day of the experiment. After a rat was anesthetized with isoflurane gas, the prepared suspension of test compound in an oral suspension vehicle was administered to the animals via oral gavage at a dose of 20 mg/kg for each compound in the mixture of MG and PGG or at 143 mg/kg MSKE, which is equivalent to approximate doses of 20 mg/kg PGG and 0.13 mg/kg MG. Subsequently, the rats’ tails were snipped near the tip to collect blood samples (approximately 50 µL), which were collected in heparinized tubes at 0, 0.50, 1, 2, 4, 6, 8 and 24 h. To investigate the excretion of phenolic compounds, urine and feces were collected between 0–24 h post-administration into tubes containing penicillin G (200 mg) and dry tubes, respectively, which were pre-weighted before use. After completing the pharmacokinetic study, the urine volume and dry feces weights were recorded, and all samples were stored at −80 °C until analysis.
The blood and urine samples were prepared according to our previously reported methods. The fecal samples were prepared by adding 30 mL methanol to the sample, and the mixture was then vortexed and sonicated for 30 min to obtain the fecal lysates, which were extracted via the same method.
The pharmacokinetic parameters of MG and PGG were calculated based on the non-compartmental method using WinNonlin 3.3 (Pharsight Corporation, Mountain View, CA, USA). The total mass of analytes was calculated according to the following equations (Equations (3)–(6)): The mass recovery (%) = (total mass in blood + total mass in urine + total mass in feces)/initial mass of analyte (3) Total mass in blood = C24h in blood × rat blood volume (70 mL/kg of body weight) (4) Total mass in urine = C0–24h in urine × volume of urine (0–24 h) (5) Total mass in feces = C0–24h in fecal lysate × volume of fecal lysate (30 mL) (6) where C24h in the blood is the concentration of analyte found in the blood sample at 24 h, and C0–24h in the urine and C0–24h in the fecal lysate are the concentrations of the analyte found in the urine and fecal samples, respectively, between 0 and 24 h.
A Waters UPLC system coupled with an ESI triple quadrupole mass spectrometer (QTRAP5500, AB Sciex, Foster City, CA, USA) was used to analyze MG and PGG in biological samples. The LC–MS/MS conditions were previously published. The UPLC conditions were Kinetex C18 column at 50 mm × 2.1 mm I.D. and 5 µm particle size (Phenomenex Inc.); mobile phase A at 0.1% formic acid in deionized water; mobile phase B at 100% acetonitrile; gradient at 0.0–0.5 min (0% B), 0.5–1.0 min (0%–30% B), 1.0–2.0 min (30%–90% B), 2.0–3.0 min (90% B), 3.0–3.5 min (90%–0% B) and 3.5–5.0 min (0% B); flow rate at 0.5 mL/min; column temperature at 40 °C; sample temperature at 20 °C; and injection volume at 10 µL. The mass spectrometer employed an MRM method in the negative ion mode. The instrument-dependent parameters for obtaining the mass spectra were set as follows: ionspray voltage at −4.5 kV; ion source temperature at 550 °C; gas 1 at 60 psi; gas 2 at 60 psi; and curtain gas at 20 psi. The unit mass resolution was set in both mass-resolving quadruples Q1 and Q3. Because of the absence of authentic standard for the glucuronide and sulfate metabolites of MG and PGG, qualification of the metabolites in the biological samples was accomplished using the compound-dependent parameters for MG and PGG.

[1] = MSKE 143 mg/kg (20 mg/kg PGG and 0.13 mg/kg MG)
[2] = mixture of MG and PGG 20 mg/kg each
[3] = mixture 20 mg/kg, p.o. vs i.p. (ref 14)
[4] = p.o., MSKE 143 mg/kg (20 mg/kg PGG and 0.13 mg/kg MG)
[5] = p.o., mixture of MG and PGG 20 mg/kg each

## COC(=O)c1cc(O)c(O)c(O)c1 [MG, methyl gallate]
[1]
  MRT last: 11.1 ± 0.6 h
  half-life: 65.2 ± 49.4 h
  k el: 4.17e-06 s⁻¹
  Cmax: 240 ± 60 nM
  Tmax: 0.5 h
  AUC(0-t): 3.57 ± 0.79 µM·h
[2]
  MRT last: 8.69 ± 1.57 h
  half-life: 24.8 ± 15.7 h
  k el: 1e-05 s⁻¹
  Cmax: 1130 ± 1060 nM
  Tmax: 2.3 ± 1.64 h
  AUC(0-t): 6.47 ± 0.75 µM·h
[3]
  AUC0–24h, oral lower than intraperitoneal: ~17 folds
  Cmax, oral lower than intraperitoneal: ~31 folds
  Tmax, oral compared with intraperitoneal (slower absorption): approximately 3 folds
  Vd, oral higher than intraperitoneal: approximately 19 folds
  t1/2, oral longer than intraperitoneal: ~1.4 folds
[4]
  CL: 35.2 ± 21 mL/min/kg
  Vd: 135.39 ± 21.94 L/kg
[5]
  CL: 5534.3 ± 1662 mL/min/kg
  time of second maximum peak of blood concentration (double-peak profile): 4 h
